US11066668B2, “Compositions and methods for modulation of IKBKAP splicing” (Ionis Pharmaceuticals, Inc., priority 2012, dated 2021)
Oligonucleotides are written 5' to 3', each unit as a sugar letter and its base; * is a phosphorothioate linkage, no mark a phosphodiester; rarer units and linkages stand in square brackets, end groups in braces. Plain capitals give the bases only. e = 2'-O-(2-methoxyethyl) (MOE); [5mC] = 5-methylcytosine

System: IKBKAP pre-mRNA (mt19-21 minigene)
Experiment: Exon 20 inclusion in HEK-293 cells harboring the mt19-21 IKBKAP minigene (RT-PCR)
Type: cell-based, human
Conditions: HEK-293 with mt19-21 minigene; for % inclusion (exon 20): Table 1, 0.007 nmol oligonucleotide by electroporation, RT-PCR two days later; for effect on exon 20 inclusion/skipping, in words: 0.007 nmol oligonucleotide
Experimental: Antisense oligonucleotides were designed targeting a human IKBKAP nucleic acid and were tested for their effects on IKBKAP pre-mRNA in vitro. Together, the overlapping antisense oligonucleotides spanned the entire 74-nucleotide region of the IKBKAP exon 20 sequence, as well as the 100-nucleotide intronic regions immediately upstream and downstream of exon 20. The antisense oligonucleotides are presented in Table 1, and were designed as uniform 2′-O-methoxyethyl ribose (MOE) oligonucleotides with phosphate backbones. Each oligonucleotide is 15 nucleosides in length. All cytosine residues throughout the oligonucleotide are 5-methylcytosines. ‘Start Site’ indicates the 5′-most nucleoside to which the oligonucleotide is targeted in the human gene sequence. “Stop site” indicates the 3′-most nucleoside to which the oligonucleotide is targeted in the human gene sequence. Each oligonucleotide listed in Table 1 is targeted to the human IKBKAP genomic sequence (the complement of GENBANK Accession No NT_008470.16 truncated from nucleotides 13290828 to Ser. No. 13/358,424, designated herein as SEQ ID NO: 1). ISIS 414161 has one mismatch with SEQ ID NO: 1.
Cultured HEK-293 cells harboring the mt19-21 minigene vector construct at a density of 7×10^5 cells per well were transfected using electroporation (Gene Pulsar II apparatus, Bio-Rad) with 0.007 nmol antisense oligonucleotide, as previously described (Hua, Y., et al., 2007. PLoS Biol 5:e73). […] These oligonucleotides served as controls for non-specific effects of uniform MOE oligonucleotides with phosphate backbones. Cells harboring the wt19-21 minigene and the mt19-21 minigene alone were also cultured and were used as controls for exon 20 inclusion levels. Two days later, cDNA synthesized from total RNA extracted from HEK-293 cells was amplified using the forward primer pCDNAF and reverse primer sequence IKAP21R4 to assay the splicing pattern of expressed RNAs by RT-PCR. To calculate exon 20 inclusion levels, the PCR amplicons were labeled with α^32P-dCTP. The PCR products were then separated by native PAGE, followed by phosphorimage analysis on a FUJIFILM FLA-5100 instrument (Fuji Medical Systems USA Inc.). The band intensities were quantified using Multi Gauge software Version 2.3 (FUJIFILM), and values were normalized for the G+C content according to the DNA sequence.
Treatment with antisense oligonucleotides targeting the 3′ and 5′ splice sites caused increased skipping of exon 20.
Additional oligonucleotides were designed targeting the first 30-nucleotide stretch of ISS-40. These oligonucleotides were designed by choosing sequences shifted in one nucleotide increments upstream and downstream (i.e., a “microwalk”) of ISS-40, starting from the +6 position in exon 20. The antisense oligonucleotides are presented in Table 2 and FIG. 4D, and were designed as uniform 2′-O-methoxyethyl ribose (MOE) oligonucleotides with phosphate backbones. Each oligonucleotide is 20 nucleosides in length. All cytosine residues throughout the oligonucleotide are 5-methylcytosines. ‘Start Site’ indicates the 5′-most nucleoside to which the oligonucleotide is targeted in the human gene sequence. “Stop site” indicates the 3′-most nucleoside to which the oligonucleotide is targeted in the human gene sequence. Each oligonucleotide listed in Table 2 is targeted to intron 20 of the human IKBKAP genomic sequence (the complement of GENBANK Accession No NT_008470.16 truncated from nucleotides 13290828 to Ser. No. 13/358,424, designated herein as SEQ ID NO: 1). These oligonucleotides were tested in vitro.
Cultured HEK-293 cells harboring the mt19-21 minigene vector construct at a density of 7×10^5 cells per well were transfected using electroporation (Gene Pulsar II apparatus, Bio-Rad) with 0.007 nmol antisense oligonucleotide, as previously described (Hua, Y., et al., 2007. PLoS Biol 5:e73). […]

| Substance | % inclusion (exon 20) | effect on exon 20 inclusion/skipping, in words |
| --- | --- | --- |
| ISIS 414129: uniform 2′-MOE 15-mer, phosphate backbone, 5-methylcytosines; AGAGAATTACCACAA, SEQ ID NO 8, intron 19 (eAeGeAeGeAeAeTeTeAe[5mC]e[5mC]eAe[5mC]eAeA; splice-switching) | 23% |  |
| ISIS 414130: uniform 2′-MOE 15-mer, phosphate backbone; TTCACAGAGAATTAC, SEQ ID NO 9, intron 19 (eTeTe[5mC]eAe[5mC]eAeGeAeGeAeAeTeTeAe[5mC]; splice-switching) | 25% |  |
| ISIS 414131: uniform 2′-MOE 15-mer, phosphate backbone; AACTCTTCACAGAGA, SEQ ID NO 10, intron 19 (eAeAe[5mC]eTe[5mC]eTeTe[5mC]eAe[5mC]eAeGeAeGeA; splice-switching) | 30% |  |
| ISIS 414132: uniform 2′-MOE 15-mer, phosphate backbone; TACCTAACTCTTCAC, SEQ ID NO 11, intron 19 (eTeAe[5mC]e[5mC]eTeAeAe[5mC]eTe[5mC]eTeTe[5mC]eAe[5mC]; splice-switching) | 19% |  |
| ISIS 414133: uniform 2′-MOE 15-mer, phosphate backbone; CATTTTACCTAACTC, SEQ ID NO 12, intron 19 (e[5mC]eAeTeTeTeTeAe[5mC]e[5mC]eTeAeAe[5mC]eTe[5mC]; splice-switching) | 25% |  |
| ISIS 414134: uniform 2′-MOE 15-mer, phosphate backbone; TACACCATTTTACCT, SEQ ID NO 13, intron 19 (eTeAe[5mC]eAe[5mC]e[5mC]eAeTeTeTeTeAe[5mC]e[5mC]eT; splice-switching) | 25% |  |
| ISIS 414135: uniform 2′-MOE 15-mer, phosphate backbone; CAGGATACACCATTT, SEQ ID NO 14, intron 19 (e[5mC]eAeGeGeAeTeAe[5mC]eAe[5mC]e[5mC]eAeTeTeT; splice-switching) | 46% | positive effect on exon 20 inclusion |
| ISIS 414136: uniform 2′-MOE 15-mer, phosphate backbone; ATAGCCAGGATACAC, SEQ ID NO 15, intron 19 (eAeTeAeGe[5mC]e[5mC]eAeGeGeAeTeAe[5mC]eAe[5mC]; splice-switching) | 45% | positive effect on exon 20 inclusion |
| ISIS 414137: uniform 2′-MOE 15-mer, phosphate backbone; TTTAAATAGCCAGGA, SEQ ID NO 16, intron 19 (eTeTeTeAeAeAeTeAeGe[5mC]e[5mC]eAeGeGeA; splice-switching) | 52% | positive effect on exon 20 inclusion |
| ISIS 414138: uniform 2′-MOE 15-mer, phosphate backbone; AAACATTTAAATAGC, SEQ ID NO 17, intron 19 (eAeAeAe[5mC]eAeTeTeTeAeAeAeTeAeGe[5mC]; splice-switching) | 23% |  |
| ISIS 414139: uniform 2′-MOE 15-mer, phosphate backbone; GTAGAAAACATTTAA, SEQ ID NO 18, intron 19 (eGeTeAeGeAeAeAeAe[5mC]eAeTeTeTeAeA; splice-switching) | 20% |  |
| ISIS 414140: uniform 2′-MOE 15-mer, phosphate backbone; ATTAAGTAGAAAACA, SEQ ID NO 19, intron 19 (eAeTeTeAeAeGeTeAeGeAeAeAeAe[5mC]eA; splice-switching) | 13% |  |
| ISIS 414141: uniform 2′-MOE 15-mer, phosphate backbone; TTTTAATTAAGTAGA, SEQ ID NO 20, intron 19 (eTeTeTeTeAeAeTeTeAeAeGeTeAeGeA; splice-switching) | 24% |  |
| ISIS 414142: uniform 2′-MOE 15-mer, phosphate backbone; AACATTTTTAATTAA, SEQ ID NO 21, intron 19 (eAeAe[5mC]eAeTeTeTeTeTeAeAeTeTeAeA; splice-switching) | 23% |  |
| ISIS 414143: uniform 2′-MOE 15-mer, phosphate backbone; GCAGTAACATTTTTA, SEQ ID NO 22, intron 19 (eGe[5mC]eAeGeTeAeAe[5mC]eAeTeTeTeTeTeA; splice-switching) | 8% |  |
| ISIS 414144: uniform 2′-MOE 15-mer, phosphate backbone; TTAAAGCAGTAACAT, SEQ ID NO 23, intron 19 (eTeTeAeAeAeGe[5mC]eAeGeTeAeAe[5mC]eAeT; splice-switching) | 7% |  |
| ISIS 414145: uniform 2′-MOE 15-mer, phosphate backbone; ATAAATTAAAGCAGT, SEQ ID NO 24, intron 19 (eAeTeAeAeAeTeTeAeAeAeGe[5mC]eAeGeT; splice-switching) | 3% |  |
| ISIS 414146: uniform 2′-MOE 15-mer, phosphate backbone; CTTAAATAAATTAAA, SEQ ID NO 25, intron 19 (e[5mC]eTeTeAeAeAeTeAeAeAeTeTeAeAeA; splice-switching) | 26% |  |
| ISIS 414147: uniform 2′-MOE 15-mer, phosphate backbone; GTTTCCCCTTGGCAT, SEQ ID NO 26, exon 20 (eGeTeTeTe[5mC]e[5mC]e[5mC]e[5mC]eTeTeGeGe[5mC]eAeT; splice-switching) | 3% |  |
| ISIS 414148: uniform 2′-MOE 15-mer, phosphate backbone; TCTAAGTTTCCCCTT, SEQ ID NO 27, exon 20 (eTe[5mC]eTeAeAeGeTeTeTe[5mC]e[5mC]e[5mC]e[5mC]eTeT; splice-switching) | 7% |  |
| ISIS 414149: uniform 2′-MOE 15-mer, phosphate backbone; CAACTTCTAAGTTTC, SEQ ID NO 28, exon 20 (e[5mC]eAeAe[5mC]eTeTe[5mC]eTeAeAeGeTeTeTe[5mC]; splice-switching) | 20% |  |
| ISIS 414150: uniform 2′-MOE 15-mer, phosphate backbone; ATGAACAACTTCTAA, SEQ ID NO 29, exon 20 (eAeTeGeAeAe[5mC]eAeAe[5mC]eTeTe[5mC]eTeAeA; splice-switching) | 5% |  |
| ISIS 414151: uniform 2′-MOE 15-mer, phosphate backbone; CGATGATGAACAACT, SEQ ID NO 30, exon 20 (e[5mC]eGeAeTeGeAeTeGeAeAe[5mC]eAeAe[5mC]eT; splice-switching) | 0% |  |
| ISIS 414152: uniform 2′-MOE 15-mer, phosphate backbone; GGGCTCGATGATGAA, SEQ ID NO 31, exon 20 (antisense eGeGeGe[5mC]eTe[5mC]eGeAeTeGeAeTeGeAeA) | 3% |  |
| ISIS 414153: uniform 2′-MOE 15-mer, phosphate backbone; AACCAGGGCTCGATG, SEQ ID NO 32, exon 20 (antisense eAeAe[5mC]e[5mC]eAeGeGeGe[5mC]eTe[5mC]eGeAeTeG) | 5% |  |
| ISIS 414155: uniform 2′-MOE 15-mer, phosphate backbone; TCTGAGCTAAAACCA, SEQ ID NO 34, exon 20 (eTe[5mC]eTeGeAeGe[5mC]eTeAeAeAeAe[5mC]e[5mC]eA; splice-switching) | 6% |  |
| ISIS 414156: uniform 2′-MOE 15-mer, phosphate backbone; CCGAATCTGAGCTAA, SEQ ID NO 35, exon 20 (e[5mC]e[5mC]eGeAeAeTe[5mC]eTeGeAeGe[5mC]eTeAeA; splice-switching) | 5% |  |
